Legend:
Type in all cases: ADME, organism-based
[1] = Half life in CD-1 mouse at 3 mg/kg, iv; parameters: dose 3 mg/kg, route intravenous; settings: in vivo
[2] = Volume of distribution at steady state in CD-1 mouse at 3 mg/kg, iv and 10 mg/kg, po; settings: in vivo, read-out: Vdss
[3] = Oral bioavailability in CD-1 mouse at 10 mg/kg; settings: in vivo
[4] = Clearance in CD-1 mouse at 3 mg/kg, iv and 10 mg/kg, po; settings: in vivo
[5] = AUC in CD-1 mouse at 10 mg/kg, po; parameters: dose 10 mg/kg, route oral; settings: plasma

half-life [1] [min] | Vd [2] [L/kg] | bioavailability [3] [%] | clearance [4] [mL/min/kg] | AUC [5] [ng·h/mL] | Compound
54 | 12 | 22 | 210 | 100 | Cc1ccc(-c2ncc(C)n2C)cc1NC(=O)c1ccc(OCc2ccccn2)cc1
60 | 0.5 | 83 | 8.3 | 12500 | Cc1ccc(-c2ncc[nH]2)cc1NC(=O)c1ccc(OCc2ccccn2)cc1

Source: ChEMBL document CHEMBL2057166, “Discovery of novel hedgehog antagonists from cell-based screening: Isosteric modification of p38 bisamides as potent inhibitors of SMO” (Bioorg Med Chem Lett, 2012)
